# Where two headings read alike, the source gives them in different places.
# System: S. aureus clinical isolates
# Assay: microbe, parasite or virus in culture
# Type: cell-based
smiles,measurement,setting,value
Cc1[nH]c(C(=O)Nc2nc3ccc(C(=O)O)cc3s2)c(Cl)c1Cl [ULD1],MIC,"S. aureus ATCC 29213, MSSA / VSSA, test date 2018-10-25 (three repeat lines)",1 µg/mL
same,MIC,"Staphylococcus aureus, ATCC 29213 / MSSA, S. aureus ATCC 29213, MSSA / VSSA, test date 2018-10-25 (three repeat lines), read-out: MIC",0.5 µg/mL
same,MIC,"Staphylococcus aureus, ATCC 29213 / MSSA, S. aureus ATCC 29213, MSSA / VSSA, test date 2018-11-07, read-out: MIC",0.25 µg/mL
same,MIC,"Staphylococcus aureus, MRSA / NRS 3 / VISA, S. aureus IHMA 1308243, NRS3, MRSA / VISA, read-out: MIC",1 µg/mL
same,MIC,"Staphylococcus aureus, MRSA / NRS 4 / VISA, S. aureus IHMA 649380, NRS4, MRSA / VISA, read-out: MIC",0.5 µg/mL
same,MIC,"Staphylococcus aureus, MRSA / NRS 18 / VISA, S. aureus IHMA 649386, NRS18, MRSA / VISA, read-out: MIC",0.5 µg/mL
same,MIC,"Staphylococcus aureus, MRSA / NRS 19 / VISA, S. aureus IHMA 649387, NRS19, MRSA / VISA, read-out: MIC",0.5 µg/mL
same,MIC,"Staphylococcus aureus, MRSA / NRS 21 / VISA, S. aureus IHMA 649388, NRS21, MRSA / VISA, read-out: MIC",1 µg/mL
same,MIC,"Staphylococcus aureus, MRSA / NRS 22 / USA600 / VISA, S. aureus IHMA 649389, NRS22, MRSA / VISA, USA600, read-out: MIC",0.5 µg/mL
same,MIC,"Staphylococcus aureus, MRSA / NRS 23 / VISA, S. aureus IHMA 649390, NRS23, MRSA / VISA, read-out: MIC",0.5 µg/mL
same,MIC,"Staphylococcus aureus, MRSA / NRS 24 / VISA, S. aureus IHMA 649391, NRS24, MRSA / VISA, read-out: MIC",0.5 µg/mL
same,MIC,"Staphylococcus aureus, MRSA / NRS 26, S. aureus IHMA 649392, NRS26, MRSA / VSSA, read-out: MIC",0.5 µg/mL
same,MIC,"Staphylococcus aureus, MRSA / NRS 27 / VISA, S. aureus IHMA 1308248, NRS27, MRSA / VISA, read-out: MIC",1 µg/mL
same,MIC,"Staphylococcus aureus, MRSA / NRS 29 / VISA, S. aureus IHMA 1308250, NRS29, MRSA / VISA, read-out: MIC",0.5 µg/mL
same,MIC,"Staphylococcus aureus, MRSA / NRS 37 / VISA, S. aureus IHMA 1308251, NRS37, MRSA / VISA, read-out: MIC",0.5 µg/mL
same,MIC,"Staphylococcus aureus, MRSA / NRS 54, S. aureus IHMA 1308253, NRS54, MRSA / VSSA* (*Expected VAN intermediate, confirmed VAN susceptible twice), test date 2018-11-07, read-out: MIC",0.25 µg/mL
same,MIC,"Staphylococcus aureus, MRSA / NRS 56 / VISA, S. aureus IHMA 1308254, NRS56, MRSA / VISA, read-out: MIC",0.5 µg/mL
same,MIC,"Staphylococcus aureus, MRSA / USA100 / VRSA, S. aureus IHMA 672230, VRS1, MRSA / VRSA, USA100, read-out: MIC",0.5 µg/mL
same,MIC,"Staphylococcus aureus, MRSA / USA100 / VRSA, S. aureus IHMA 672231, VRS2, MRSA / VRSA, USA100, read-out: MIC",0.5 µg/mL
same,MIC,"Staphylococcus aureus, MRSA / USA100 / VRSA, S. aureus IHMA 672234, VRS4, MRSA / VRSA, USA100, read-out: MIC",0.5 µg/mL
same,MIC,"Staphylococcus aureus, MRSA / USA100 / VRSA, S. aureus IHMA 672235, VRS5, MRSA / VRSA, USA100, read-out: MIC",1 µg/mL
same,MIC,"Staphylococcus aureus, MRSA / USA100 / VRSA, S. aureus IHMA 672237, VRS7, MRSA / VRSA, USA100, read-out: MIC",0.5 µg/mL
same,MIC,"Staphylococcus aureus, MRSA / USA100 / VRSA, S. aureus IHMA 672238, VRS8, MRSA / VRSA, USA100, read-out: MIC",0.5 µg/mL
same,MIC,"Staphylococcus aureus, MRSA / USA100 / VRSA, S. aureus IHMA 672239, VRS9, MRSA / VRSA, USA100, read-out: MIC",0.5 µg/mL
same,MIC,"Staphylococcus aureus, MRSA / USA100 / VRSA, S. aureus IHMA 1308256, VRS10, MRSA / VRSA, USA100, read-out: MIC",1 µg/mL
same,MIC,"Staphylococcus aureus, MRSA / USA100 / VRSA, S. aureus IHMA 1308258, VRS11b, MRSA / VRSA, USA100, read-out: MIC",0.5 µg/mL
same,MIC,"Staphylococcus aureus, MRSA / USA800 / VRSA, S. aureus IHMA 672233, VRS3b, MRSA / VRSA, USA800, read-out: MIC",0.25 µg/mL
same,MIC,"Staphylococcus aureus, MRSA / VISA / VRSA, all isolates of the panel (MRSA, VISA, VRSA), read-out: MIC against all tested S. aureus clinical isolates",≤ 1 µg/mL
same,MIC,"Staphylococcus aureus, MRSA, S. aureus IHMA 1569509, MRSA / VSSA, read-out: MIC",0.25 µg/mL
same,MIC,"Staphylococcus aureus, MRSA, S. aureus IHMA 1575268, MRSA / VSSA, read-out: MIC",1 µg/mL
same,MIC,"Staphylococcus aureus, MRSA, S. aureus IHMA 1575629, MRSA / VSSA, read-out: MIC",0.5 µg/mL
same,MIC,"Staphylococcus aureus, MRSA, S. aureus IHMA 1577820, MRSA / VSSA, read-out: MIC",1 µg/mL
same,MIC,"Staphylococcus aureus, MRSA, S. aureus IHMA 1580300, MRSA / VSSA, read-out: MIC",0.5 µg/mL
same,MIC,"Staphylococcus aureus, MRSA, S. aureus IHMA 1580940, MRSA / VSSA, read-out: MIC",0.5 µg/mL
same,MIC,"Staphylococcus aureus, MRSA, S. aureus IHMA 1582100, MRSA / VSSA, read-out: MIC",0.5 µg/mL
same,MIC,"Staphylococcus aureus, MRSA, S. aureus IHMA 1583795, MRSA / VSSA, read-out: MIC",1 µg/mL
same,MIC,"Staphylococcus aureus, MRSA, S. aureus IHMA 1584223, MRSA / VSSA, read-out: MIC",1 µg/mL
same,MIC,"Staphylococcus aureus, MRSA, S. aureus IHMA 1585316, MRSA / VSSA, read-out: MIC",0.25 µg/mL
same,MIC,"Staphylococcus aureus, MRSA, S. aureus IHMA 1586780, MRSA / VSSA, read-out: MIC",0.5 µg/mL
same,MIC,"Staphylococcus aureus, MRSA, S. aureus IHMA 1587322, MRSA / VSSA, read-out: MIC",0.5 µg/mL
same,MIC,"Staphylococcus aureus, MRSA, S. aureus IHMA 1588127, MRSA / VSSA, read-out: MIC",0.5 µg/mL
same,MIC,"Staphylococcus aureus, MRSA, S. aureus IHMA 1591462, MRSA / VSSA, read-out: MIC",0.25 µg/mL
same,MIC,"Staphylococcus aureus, MRSA, S. aureus IHMA 1592755, MRSA / VSSA, read-out: MIC",0.5 µg/mL
same,MIC,"Staphylococcus aureus, MRSA, S. aureus IHMA 1592776, MRSA / VSSA, read-out: MIC",0.5 µg/mL
same,MIC,"Staphylococcus aureus, MRSA, S. aureus IHMA 1597106, MRSA / VSSA, read-out: MIC",1 µg/mL
same,MIC,"Staphylococcus aureus, MRSA, S. aureus IHMA 1602095, MRSA / VSSA, read-out: MIC",0.5 µg/mL
same,MIC,"Staphylococcus aureus, MRSA, S. aureus IHMA 1611170, MRSA / VSSA, read-out: MIC",0.5 µg/mL
same,MIC,"Staphylococcus aureus, MRSA, S. aureus IHMA 1611612, MRSA / VSSA, read-out: MIC",0.5 µg/mL
same,MIC,"Staphylococcus aureus, MRSA, S. aureus IHMA 1612228, MRSA / VSSA, read-out: MIC",0.5 µg/mL
same,MIC,"Staphylococcus aureus, MRSA, S. aureus IHMA 1620441, MRSA / VSSA, read-out: MIC",0.5 µg/mL
same,MIC,"Staphylococcus aureus, MRSA, S. aureus IHMA 1621638, MRSA / VSSA, read-out: MIC",1 µg/mL
same,MIC,"Staphylococcus aureus, MRSA, S. aureus IHMA 1622252, MRSA / VSSA, read-out: MIC",1 µg/mL
same,MIC,"Staphylococcus aureus, MRSA, S. aureus IHMA 1622527, MRSA / VSSA, read-out: MIC",0.25 µg/mL
same,MIC,"Staphylococcus aureus, MRSA, S. aureus IHMA 1666371, MRSA / VSSA, read-out: MIC",0.5 µg/mL
same,MIC,"Staphylococcus aureus, MRSA, S. aureus IHMA 1695391, MRSA / VSSA, read-out: MIC",0.25 µg/mL
same,MIC,"Staphylococcus aureus, MRSA, S. aureus IHMA 1703428, MRSA / VSSA, read-out: MIC",1 µg/mL
same,MIC,"Staphylococcus aureus, MRSA, S. aureus IHMA 1720350, MRSA / VSSA, read-out: MIC",1 µg/mL
same,MIC,"Staphylococcus aureus, MRSA, S. aureus IHMA 1732989, MRSA / VSSA, read-out: MIC",1 µg/mL
